Measurements from PMC6511888, “Synthesis, Biological Evaluation, and Molecular Modeling Studies of New Thiadiazole Derivatives as Potent P2X7 Receptor Inhibitors” (Frontiers in Chemistry, 2019).

Legend:
Type in all cases: cell-based
P2Y2R = biological target: T1, P2Y2R (Mus musculus, UniProt P35383); assay: 2-S-UTP-activated [Ca2+]i shifts in mouse peritoneal macrophages; conditions: 1 μM
T1 construct: endogenous in cells; host or cells: mouse peritoneal macrophages
Experimental: (§1) Mouse peritoneal macrophages, PC12 cells, J774 cells, and HEPG2 cells were analyzed by fluorescence microscopy to measure the intracellular Ca^2+ concentrations ([Ca^2+]i). Cells were incubated with 2 μM Fura-2-AM (Molecular Probes) for 30 min, and the [Ca^2+]i mobilization was measured in the F340/F380 ratios with a FlexStation 3 multimode microplate reader (Molecular Devices). Cells were plated in translucent 96-well plates (BD Falcon) for 15 min and then washed and incubated in a saline solution with 150 NaCl, 5 KCl, 1 MgCl2, 1 CaCl2, and 10 HEPES (pH 7.4) for 30 min before measurements of [Ca^2+]i. The Ca^2+ influx was induced by stimulating cells with P2 receptor agonists. P2 receptor antagonists were added 10 min before P2 receptor agonist addition. […] Ionomycin was considered a positive control, and the other recordings were normalized in relation to the AUC.

P2X4R = biological target: T2, P2X4R (Rattus norvegicus, UniProt P51577); assay: ATP-induced [Ca2+]i shifts potentiated by ivermectin in NR8383 alveolar macrophage cell line; conditions: 1 μM; NR8383 cells
T2 construct: endogenous in cells; host or cells: NR8383 rat alveolar macrophage cell line
T2 sequence (P51577 1-388): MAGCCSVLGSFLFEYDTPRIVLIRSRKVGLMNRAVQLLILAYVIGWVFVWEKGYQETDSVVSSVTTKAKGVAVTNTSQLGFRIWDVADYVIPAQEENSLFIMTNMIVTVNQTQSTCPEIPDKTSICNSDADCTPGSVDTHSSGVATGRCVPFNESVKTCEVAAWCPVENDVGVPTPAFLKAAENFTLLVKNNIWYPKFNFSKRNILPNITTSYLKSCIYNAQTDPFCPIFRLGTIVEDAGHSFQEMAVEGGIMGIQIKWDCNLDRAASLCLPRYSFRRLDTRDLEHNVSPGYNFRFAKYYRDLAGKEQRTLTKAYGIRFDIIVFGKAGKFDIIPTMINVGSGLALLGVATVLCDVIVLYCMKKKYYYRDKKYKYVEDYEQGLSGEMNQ

P2Y13R = biological target: T3, P2Y13R (Homo sapiens, UniProt Q9BPV8); assay: ADPβS-induced [Ca2+]i shifts in HEP2G cells; conditions: 1 μM
T3 construct: endogenous in cells; host or cells: HEP2G (HEPG2) cells
T3 sequence (Q9BPV8 1-354): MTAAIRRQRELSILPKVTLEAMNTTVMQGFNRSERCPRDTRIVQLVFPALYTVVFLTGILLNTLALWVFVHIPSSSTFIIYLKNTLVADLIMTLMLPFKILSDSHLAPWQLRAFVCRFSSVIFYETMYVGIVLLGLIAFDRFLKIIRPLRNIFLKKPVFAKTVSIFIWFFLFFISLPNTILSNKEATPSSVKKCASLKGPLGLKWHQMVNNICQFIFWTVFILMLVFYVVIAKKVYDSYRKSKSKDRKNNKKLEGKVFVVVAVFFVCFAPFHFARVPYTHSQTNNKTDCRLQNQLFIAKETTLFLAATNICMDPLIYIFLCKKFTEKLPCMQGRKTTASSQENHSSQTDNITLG
Experimental: as §1

P2Y1R = biological target: T4, P2Y1R (Mus musculus, UniProt P49650); assay: ADP-induced [Ca2+]i shifts in mouse peritoneal macrophages; conditions: 1 μM
T4 construct: endogenous in cells; host or cells: mouse peritoneal macrophages
Experimental: as §1

P2X1R = biological target: T5, P2X1R (Mus musculus, UniProt P51576); assay: β,γ-meATP-induced intracellular Ca2+ mobilization in J774 cells; conditions: 10 μM
T5 construct: endogenous in cells; host or cells: J774 cells
T5 sequence (P51576 1-399): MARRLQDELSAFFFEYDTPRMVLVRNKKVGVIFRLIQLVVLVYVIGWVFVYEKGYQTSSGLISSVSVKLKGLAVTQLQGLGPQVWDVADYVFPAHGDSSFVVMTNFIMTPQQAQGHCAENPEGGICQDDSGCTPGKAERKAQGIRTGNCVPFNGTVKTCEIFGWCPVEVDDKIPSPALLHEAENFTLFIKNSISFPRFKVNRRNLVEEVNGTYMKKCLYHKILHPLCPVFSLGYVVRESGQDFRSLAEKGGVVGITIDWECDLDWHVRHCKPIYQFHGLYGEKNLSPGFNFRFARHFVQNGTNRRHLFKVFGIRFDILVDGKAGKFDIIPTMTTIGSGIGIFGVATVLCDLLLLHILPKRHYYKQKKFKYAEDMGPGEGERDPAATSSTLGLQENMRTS
Experimental: as §1

P2X2R = biological target: T6, P2X2R (Rattus norvegicus, UniProt P49653); assay: ATP-induced [Ca2+]i shifts in PC12 cells; conditions: 1 μM
T6 construct: endogenous in cells; host or cells: PC12 cells
T6 sequence (P49653 1-472): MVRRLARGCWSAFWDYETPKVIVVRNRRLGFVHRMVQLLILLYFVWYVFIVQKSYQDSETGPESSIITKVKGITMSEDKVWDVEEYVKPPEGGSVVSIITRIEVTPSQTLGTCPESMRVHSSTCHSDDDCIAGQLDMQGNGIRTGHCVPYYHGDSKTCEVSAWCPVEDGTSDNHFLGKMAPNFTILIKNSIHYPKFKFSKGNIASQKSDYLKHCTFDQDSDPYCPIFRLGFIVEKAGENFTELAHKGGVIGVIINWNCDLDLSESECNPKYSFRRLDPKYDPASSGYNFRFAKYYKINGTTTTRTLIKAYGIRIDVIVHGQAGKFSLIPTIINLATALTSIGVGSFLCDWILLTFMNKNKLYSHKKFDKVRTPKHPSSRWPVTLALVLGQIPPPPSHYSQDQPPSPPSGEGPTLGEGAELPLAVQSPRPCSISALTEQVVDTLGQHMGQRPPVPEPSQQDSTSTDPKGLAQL
Experimental: as §1

P2Y14R = biological target: T7, P2Y14R (Mus musculus, UniProt Q9ESG6); assay: UDP-glucose-activated [Ca2+]i shifts in mouse peritoneal macrophages; conditions: 1 μM
T7 construct: endogenous in cells; host or cells: mouse peritoneal macrophages
T7 sequence (Q9ESG6 1-338): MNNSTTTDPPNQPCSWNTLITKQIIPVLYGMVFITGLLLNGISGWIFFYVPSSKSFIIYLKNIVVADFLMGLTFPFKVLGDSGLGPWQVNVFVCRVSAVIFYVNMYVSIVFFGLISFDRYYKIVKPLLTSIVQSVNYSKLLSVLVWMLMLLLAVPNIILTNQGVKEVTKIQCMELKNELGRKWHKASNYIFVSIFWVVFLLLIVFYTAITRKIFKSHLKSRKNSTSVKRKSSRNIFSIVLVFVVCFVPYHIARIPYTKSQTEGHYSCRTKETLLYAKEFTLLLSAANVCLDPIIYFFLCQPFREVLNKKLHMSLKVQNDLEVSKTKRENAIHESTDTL
Experimental: as §1

P2X3R = assay: α,β-meATP-induced [Ca2+]i shift; conditions: 10 μM
Experimental: as §1

T4 sequence (P49650 whole entry): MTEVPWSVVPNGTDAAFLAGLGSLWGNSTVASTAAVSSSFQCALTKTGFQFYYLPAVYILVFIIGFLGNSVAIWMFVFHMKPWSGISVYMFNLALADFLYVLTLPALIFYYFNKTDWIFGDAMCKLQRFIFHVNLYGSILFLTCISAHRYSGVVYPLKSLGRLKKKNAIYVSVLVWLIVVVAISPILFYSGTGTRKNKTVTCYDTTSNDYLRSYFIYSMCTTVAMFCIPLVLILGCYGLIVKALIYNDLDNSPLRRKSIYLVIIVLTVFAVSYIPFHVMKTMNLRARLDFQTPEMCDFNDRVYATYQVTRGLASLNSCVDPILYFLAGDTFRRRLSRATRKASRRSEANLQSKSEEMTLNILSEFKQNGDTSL
T1 sequence (P35383 whole entry): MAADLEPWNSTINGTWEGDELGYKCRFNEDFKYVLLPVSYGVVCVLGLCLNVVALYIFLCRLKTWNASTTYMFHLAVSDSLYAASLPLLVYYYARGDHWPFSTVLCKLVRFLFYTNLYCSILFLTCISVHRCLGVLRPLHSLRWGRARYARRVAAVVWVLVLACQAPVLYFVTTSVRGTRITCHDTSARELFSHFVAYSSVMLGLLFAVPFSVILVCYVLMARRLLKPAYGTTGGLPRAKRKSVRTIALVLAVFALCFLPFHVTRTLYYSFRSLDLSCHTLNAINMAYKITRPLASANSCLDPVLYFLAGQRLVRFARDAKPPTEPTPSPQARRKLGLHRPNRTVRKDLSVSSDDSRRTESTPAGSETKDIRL

## Cc1ccc2c(c1)C=Cc1cc(C)ccc1C2c1cn(Cc2ccc(C(=O)Nc3nn[nH]n3)o2)c(=O)[nH]c1=S [AR-C 118925XX]
P2Y2R
  Effect on 2-S-UTP-activated [Ca2+]i shifts: inhibited

## O=C1CN=C(c2cccc(Br)c2)c2oc3ccccc3c2N1 [Compound 5BDBD]
P2X4R
  Effect on ATP-induced [Ca2+]i shifts potentiated by 1 μM ivermectin: inhibited

## Cc1nc(N=Nc2cc([N+](=O)[O-])ccc2Cl)c(COP(=O)(O)O)c(C=O)c1O [MRS2211]
P2Y13R
  Effect on ADPβS-induced [Ca2+]i shifts: inhibited

## CNc1ncnc2c1ncn2[C@H]1C[C@H](OP(=O)(O)O)[C@@H](COP(=O)(O)O)O1 [MRS 2179]
P2Y1R
  Effect on ADP-induced [Ca2+]i shifts: inhibited

## O=C(Nc1cccc(C(=O)Nc2ccc(S(=O)(=O)O)c3cc(S(=O)(=O)O)cc(S(=O)(=O)O)c23)c1)Nc1cccc(C(=O)Nc2ccc(S(=O)(=O)O)c3cc(S(=O)(=O)O)cc(S(=O)(=O)O)c23)c1 [NF023, reference compound]
P2X1R
  Effect on β,γ-meATP-induced intracellular Ca2+ mobilization: inhibited

## COc1cc(S(=O)(=O)O)cc2cc(S(=O)(=O)O)c(NC(=O)c3ccc(C)c(NC(=O)c4cccc(NC(=O)Nc5cccc(C(=O)Nc6cc(C(=O)Nc7cc8c(OC)cc(S(=O)(=O)O)cc8cc7S(=O)(=O)O)ccc6C)c5)c4)c3)cc12 [NF770]
P2X2R
  Effect on ATP-induced [Ca2+]i shifts: inhibited

## O=C(O)c1cc(-c2ccc(C3CCNCC3)cc2)c2ccc(-c3ccc(C(F)(F)F)cc3)cc2c1 [PPNT]
P2Y14R
  Effect on UDP-glucose-activated [Ca2+]i shifts: inhibited

## Nc1ncnc2c1ncn2[C@@H]1O[C@H](COP(=O)(O)OP(=O)(O)OP(=O)(O)O)[C@H]2OC3(O[C@H]21)C([N+](=O)[O-])=CC(=[N+]([O-])[O-])C=C3[N+](=O)[O-] (some centres unmarked) [TNP-ATP, reference compound]
P2X3R
  Effect on activity of P2X3R agonist α,β-meATP: inhibited
